One data set relates to UM-SCC-17B cells. Briefly: Anchorage dependent growth (MTT). Format: cell-based. To be noted: Homo sapiens, 48 hrs. As for the experimental part: GAPDH-normalized pSTAT3 or pSTAT1 values were divided by that for untreated cells and expressed in percentage. These values were plotted as a function of Log [M] compound, and IC50 values calculated using GraphPad. […] Viable cells quantitated using MTT. Relative % viability was measured by (viability after any treatment ÷ viability of untreated cells × 100) and plotted as a function of Log [M] […] C. […] Representative curves are shown.
Cells were cultured in triplicates in complete DMEM ± drug, in ultra-low attachment 96 well plates for 72 hrs or cell-culture treated plates for 48 hrs and viable cells were quantitated using MTT. Optical density (OD) was measured at 590 nm using a 96-well multi-scanner (EL-800 universal microplate reader, BioTek Inc, VT, USA). Relative % viability (viability after any treatment ÷ viability of untreated cells × 100) was plotted along Y-axis. At least 2 replicates experiments were performed and were used for IC50 calculation using GraphPad software.

Data set [1] can be described thus: GLP-compliant safety study in rats. To be noted: 28 days, data not shown.

Where two headings read alike, the source gives them in different places. Bounds are passed on as bounds.

Usually IC50 stands for the midpoint of a concentration-inhibition curve. As to `COc1ccc(S(=O)(=O)Nc2cc(-c3c(O)ccc4ccccc34)c(O)c3ccccc23)cc1` [Compound C188-9], the IC50 came out at 3200 ± 600 nM with UM-SCC-17B cells (mean, read-out: Anchorage dependent growth (MTT) IC50) and 2700 nM with UM-SCC-17B cells (Figure 4B, read-out: Anchorage Dependent growth IC50, representative experiment). The “Dose with no clinical, laboratory, or pathological abnormalities” value in data set [1] is recorded as no more than 200 mg/kg/d.

Source of the values: article PMC5041982, “Small-molecule inhibition of STAT3 in radioresistant head and neck squamous cell carcinoma” (Oncotarget, 2016).
